# Experimental data as given in ChEMBL document CHEMBL4507296 (2021).
# How the values were obtained:
# [1] = GPCRScan assay: inhibition of GABA/PBR; design: species or system Rattus norvegicus; radioligand conc. used [nm] 0.3 – 2.0, parental cells brain tissue
# [2] = target: Voltage-gated sodium channel (Na+ channel, site 2) (Rattus norvegicus, UniProt F1LQQ7+O08562+O88420+O88457+P04774+P04775+P08104+P15389+P15390+Q62968); assay: Na+ channel (site 2) (rat) CEREP ligand profiling; format: protein assay; details: compound concentration 10 uM
# [3] = target: High affinity choline transporter 1 (Homo sapiens) (UniProt Q9GZV3); assay: Choline transporter 1 (human) CEREP ligand profiling; details: Compound concentration 10.0 uM
# [4] = target: Prostaglandin G/H synthase 2 (Homo sapiens) (UniProt P35354); assay: Cyclooxygenase 2 (human) CEREP ligand profiling; details: Compound concentration 10.0 uM
# [5] = target: Tyrosine-protein kinase ABL2 (Homo sapiens) (UniProt P42684); details: Compound concentration 1000.0 nM
# [6] = target: Aurora kinase A (Homo sapiens) (UniProt O14965); details: Compound concentration 1000.0 nM
# [7] = target: Serine/threonine-protein kinase B-raf (Homo sapiens) (UniProt P15056); details: Compound concentration 1000.0 nM
# [8] = target: Calcium/calmodulin-dependent protein kinase type 1B (Homo sapiens) (UniProt Q6P2M8); details: Compound concentration 1000.0 nM
# Chain of Calcium/calmodulin-dependent protein kinase type 1B (Homo sapiens) (Q6P2M8 whole entry): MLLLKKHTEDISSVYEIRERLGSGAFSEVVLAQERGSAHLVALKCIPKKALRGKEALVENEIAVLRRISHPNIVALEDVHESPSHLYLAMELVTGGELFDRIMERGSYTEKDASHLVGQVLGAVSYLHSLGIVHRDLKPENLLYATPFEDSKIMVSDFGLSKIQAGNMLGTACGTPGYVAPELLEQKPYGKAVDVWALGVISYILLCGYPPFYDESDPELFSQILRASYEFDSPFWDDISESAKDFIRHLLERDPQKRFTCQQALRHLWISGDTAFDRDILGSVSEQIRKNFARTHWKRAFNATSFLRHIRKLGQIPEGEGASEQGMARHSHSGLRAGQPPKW
# [9] = target: Calcium/calmodulin-dependent protein kinase type II subunit gamma (Homo sapiens) (UniProt Q13555); details: Compound concentration 1000.0 nM
# Chain of Calcium/calmodulin-dependent protein kinase type II subunit gamma (Homo sapiens) (Q13555 whole entry): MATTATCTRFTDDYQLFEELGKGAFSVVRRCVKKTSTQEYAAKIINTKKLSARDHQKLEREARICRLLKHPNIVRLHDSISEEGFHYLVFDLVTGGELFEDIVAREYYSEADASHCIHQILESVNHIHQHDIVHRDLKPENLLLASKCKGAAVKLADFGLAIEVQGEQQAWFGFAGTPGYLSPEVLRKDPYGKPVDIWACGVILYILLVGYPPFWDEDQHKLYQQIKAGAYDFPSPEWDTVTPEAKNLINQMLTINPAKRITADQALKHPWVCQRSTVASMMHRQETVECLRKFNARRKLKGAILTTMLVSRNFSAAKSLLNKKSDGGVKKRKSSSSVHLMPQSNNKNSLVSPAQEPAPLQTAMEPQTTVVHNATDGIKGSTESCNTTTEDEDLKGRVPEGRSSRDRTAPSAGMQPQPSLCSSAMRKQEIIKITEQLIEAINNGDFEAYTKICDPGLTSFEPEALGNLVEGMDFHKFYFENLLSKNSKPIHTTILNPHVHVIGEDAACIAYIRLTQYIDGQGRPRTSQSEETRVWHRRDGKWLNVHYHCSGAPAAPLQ
# [10] = target: Calcium/calmodulin-dependent protein kinase kinase 2 (Homo sapiens) (UniProt Q96RR4); details: Compound concentration 1000.0 nM
# [11] = target: Cyclin-dependent kinase 7 (Homo sapiens) (UniProt P50613); details: Compound concentration 1000.0 nM
# Chain of Cyclin-dependent kinase 7 (Homo sapiens) (P50613 whole entry): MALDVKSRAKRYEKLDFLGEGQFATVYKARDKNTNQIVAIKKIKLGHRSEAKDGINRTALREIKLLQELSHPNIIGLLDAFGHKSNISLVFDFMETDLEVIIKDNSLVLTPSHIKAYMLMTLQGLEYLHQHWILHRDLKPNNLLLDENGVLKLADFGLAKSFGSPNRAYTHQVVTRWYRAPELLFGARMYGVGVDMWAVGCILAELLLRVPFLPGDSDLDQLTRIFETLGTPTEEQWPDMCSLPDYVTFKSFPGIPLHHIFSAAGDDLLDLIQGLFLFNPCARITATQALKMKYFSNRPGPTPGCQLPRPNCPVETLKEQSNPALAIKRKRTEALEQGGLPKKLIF
# [12] = target: Cyclin-dependent kinase-like 5 (Homo sapiens) (UniProt O76039); details: Compound concentration 1000.0 nM
# [13] = target: Casein kinase II subunit alpha' (Homo sapiens) (UniProt P19784); details: Compound concentration 1000.0 nM
# [14] = target: Myotonin-protein kinase (Homo sapiens) (UniProt Q09013); details: Compound concentration 1000.0 nM
# [15] = target: Epidermal growth factor receptor (Homo sapiens) (UniProt P00533); details: Compound concentration 1000.0 nM
# [16] = target: Ephrin type-A receptor 3 (Homo sapiens) (UniProt P29320); details: Compound concentration 1000.0 nM
# [17] = target: Ephrin type-A receptor 6 (Homo sapiens) (UniProt Q9UF33); details: Compound concentration 1000.0 nM
# [18] = target: Serine/threonine-protein kinase/endoribonuclease IRE1 (Homo sapiens) (UniProt O75460); details: Compound concentration 1000.0 nM
# Chain of Serine/threonine-protein kinase/endoribonuclease IRE1 (Homo sapiens) (O75460 19-977 limits assumed): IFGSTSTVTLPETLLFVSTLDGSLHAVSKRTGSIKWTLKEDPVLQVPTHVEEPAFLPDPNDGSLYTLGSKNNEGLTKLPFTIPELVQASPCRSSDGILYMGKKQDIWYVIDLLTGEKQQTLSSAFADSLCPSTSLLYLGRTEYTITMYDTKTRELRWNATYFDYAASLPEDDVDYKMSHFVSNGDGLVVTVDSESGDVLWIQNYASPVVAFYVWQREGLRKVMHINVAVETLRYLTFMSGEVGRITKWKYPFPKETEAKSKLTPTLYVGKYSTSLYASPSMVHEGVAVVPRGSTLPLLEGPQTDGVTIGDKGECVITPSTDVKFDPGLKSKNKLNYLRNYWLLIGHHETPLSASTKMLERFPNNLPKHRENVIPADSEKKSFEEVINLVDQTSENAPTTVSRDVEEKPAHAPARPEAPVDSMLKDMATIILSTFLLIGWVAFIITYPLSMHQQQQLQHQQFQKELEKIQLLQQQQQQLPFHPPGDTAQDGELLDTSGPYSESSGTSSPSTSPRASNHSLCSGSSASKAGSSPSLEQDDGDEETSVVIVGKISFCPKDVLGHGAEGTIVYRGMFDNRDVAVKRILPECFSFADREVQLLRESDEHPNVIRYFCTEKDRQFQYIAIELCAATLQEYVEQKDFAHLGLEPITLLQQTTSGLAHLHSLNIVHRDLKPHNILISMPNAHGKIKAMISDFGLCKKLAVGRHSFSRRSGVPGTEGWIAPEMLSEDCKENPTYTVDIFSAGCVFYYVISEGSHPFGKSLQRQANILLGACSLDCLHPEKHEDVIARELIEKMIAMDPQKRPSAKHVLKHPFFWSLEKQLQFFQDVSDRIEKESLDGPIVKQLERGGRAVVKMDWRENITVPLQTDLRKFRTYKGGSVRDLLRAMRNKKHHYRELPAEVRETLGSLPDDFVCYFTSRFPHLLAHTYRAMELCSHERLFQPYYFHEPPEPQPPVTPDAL
# [19] = target: Fibroblast growth factor receptor 1 (Homo sapiens) (UniProt P11362); details: Compound concentration 1000.0 nM
# [20] = target: Tyrosine-protein kinase Fgr (Homo sapiens) (UniProt P09769); details: Compound concentration 1000.0 nM
# [21] = system: Receptor-type tyrosine-protein kinase FLT3 (Homo sapiens), P36888 [R834Q]; details: Compound concentration 1000.0 nM
# [22] = target: Receptor-type tyrosine-protein kinase FLT3 (Homo sapiens) (UniProt P36888); details: Compound concentration 1000.0 nM
# [23] = target: Homeodomain-interacting protein kinase 1 (Homo sapiens) (UniProt Q86Z02); details: Compound concentration 1000.0 nM
# [24] = target: Inhibitor of nuclear factor kappa-B kinase subunit epsilon (Homo sapiens) (UniProt Q14164); details: Compound concentration 1000.0 nM
# Chain of Inhibitor of nuclear factor kappa-B kinase subunit epsilon (Homo sapiens) (Q14164 whole entry): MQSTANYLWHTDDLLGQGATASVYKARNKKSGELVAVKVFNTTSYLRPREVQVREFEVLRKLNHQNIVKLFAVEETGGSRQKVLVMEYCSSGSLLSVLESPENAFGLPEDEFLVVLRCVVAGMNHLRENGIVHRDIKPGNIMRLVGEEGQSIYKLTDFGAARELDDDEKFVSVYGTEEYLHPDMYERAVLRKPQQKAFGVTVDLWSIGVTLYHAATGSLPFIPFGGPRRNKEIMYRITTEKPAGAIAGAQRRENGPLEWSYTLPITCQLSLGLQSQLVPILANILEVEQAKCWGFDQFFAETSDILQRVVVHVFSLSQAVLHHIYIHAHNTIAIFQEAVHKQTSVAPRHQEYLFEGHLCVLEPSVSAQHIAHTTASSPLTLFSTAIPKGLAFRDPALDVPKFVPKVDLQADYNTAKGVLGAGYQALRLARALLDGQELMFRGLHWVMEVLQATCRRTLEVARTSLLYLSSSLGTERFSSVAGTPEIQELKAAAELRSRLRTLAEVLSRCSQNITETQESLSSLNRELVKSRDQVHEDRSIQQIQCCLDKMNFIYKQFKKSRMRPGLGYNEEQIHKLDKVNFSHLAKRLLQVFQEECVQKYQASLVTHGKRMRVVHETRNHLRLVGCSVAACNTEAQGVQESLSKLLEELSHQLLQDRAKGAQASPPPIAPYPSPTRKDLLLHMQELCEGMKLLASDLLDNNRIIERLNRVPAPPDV
# [25] = target: Tyrosine-protein kinase JAK1 (Homo sapiens) (UniProt P23458); details: Compound concentration 1000.0 nM
# [26] = target: Serine/threonine-protein kinase LATS2 (Homo sapiens) (UniProt Q9NRM7); details: Compound concentration 1000.0 nM
# [27] = target: Serine/threonine-protein kinase STK11 (Homo sapiens) (UniProt Q15831); details: Compound concentration 1000.0 nM
# Chain of Serine/threonine-protein kinase STK11 (Homo sapiens) (Q15831 whole entry): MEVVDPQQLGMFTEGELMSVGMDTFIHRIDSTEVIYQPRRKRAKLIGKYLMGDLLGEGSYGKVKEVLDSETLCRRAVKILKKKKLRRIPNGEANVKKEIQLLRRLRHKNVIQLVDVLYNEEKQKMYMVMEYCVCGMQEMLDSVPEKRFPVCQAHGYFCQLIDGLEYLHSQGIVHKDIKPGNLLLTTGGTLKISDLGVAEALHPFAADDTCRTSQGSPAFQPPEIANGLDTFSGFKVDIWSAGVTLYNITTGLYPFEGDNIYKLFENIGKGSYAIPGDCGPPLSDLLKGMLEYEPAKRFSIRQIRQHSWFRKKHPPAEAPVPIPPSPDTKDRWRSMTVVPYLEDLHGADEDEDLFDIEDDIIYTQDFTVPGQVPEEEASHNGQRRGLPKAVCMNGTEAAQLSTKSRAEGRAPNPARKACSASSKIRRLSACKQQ
# [28] = target: Tyrosine-protein kinase Lyn (Homo sapiens) (UniProt P07948); details: Compound concentration 1000.0 nM
# [29] = target: MAP/microtubule affinity-regulating kinase 4 (Homo sapiens) (UniProt Q96L34); details: Compound concentration 1000.0 nM
# [30] = target: Dual specificity mitogen-activated protein kinase kinase 7 (Homo sapiens) (UniProt O14733); details: Compound concentration 1000.0 nM
# [31] = target: Serine/threonine-protein kinase MRCK alpha (Homo sapiens) (UniProt Q5VT25); details: Compound concentration 1000.0 nM
# [32] = target: Myosin light chain kinase 2, skeletal/cardiac muscle (Homo sapiens) (UniProt Q9H1R3); details: Compound concentration 1000.0 nM
# Chain of Myosin light chain kinase 2, skeletal/cardiac muscle (Homo sapiens) (Q9H1R3 whole entry): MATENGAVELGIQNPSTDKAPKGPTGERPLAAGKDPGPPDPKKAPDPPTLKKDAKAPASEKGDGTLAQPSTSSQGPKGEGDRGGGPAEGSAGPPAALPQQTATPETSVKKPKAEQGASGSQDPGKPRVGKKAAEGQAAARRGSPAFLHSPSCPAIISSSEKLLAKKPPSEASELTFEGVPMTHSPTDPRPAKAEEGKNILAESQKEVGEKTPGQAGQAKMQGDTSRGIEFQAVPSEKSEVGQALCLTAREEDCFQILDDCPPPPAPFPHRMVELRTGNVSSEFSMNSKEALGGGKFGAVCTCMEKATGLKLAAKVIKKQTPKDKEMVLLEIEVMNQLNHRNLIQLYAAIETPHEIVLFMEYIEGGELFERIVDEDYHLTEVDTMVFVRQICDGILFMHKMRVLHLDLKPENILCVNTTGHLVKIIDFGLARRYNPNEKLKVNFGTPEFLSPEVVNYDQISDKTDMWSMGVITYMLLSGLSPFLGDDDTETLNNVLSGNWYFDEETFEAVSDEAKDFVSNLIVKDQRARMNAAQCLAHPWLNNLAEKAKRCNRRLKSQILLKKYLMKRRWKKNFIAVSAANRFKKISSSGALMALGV
# [33] = target: Serine/threonine-protein kinase Nek3 (Homo sapiens) (UniProt P51956); details: Compound concentration 1000.0 nM
# [34] = target: Serine/threonine-protein kinase pim-3 (Homo sapiens) (UniProt Q86V86); details: Compound concentration 1000.0 nM
# [35] = target: cAMP-dependent protein kinase catalytic subunit beta (Homo sapiens) (UniProt P22694); details: Compound concentration 1000.0 nM
# [36] = target: Serine/threonine-protein kinase D1 (Homo sapiens) (UniProt Q15139); details: Compound concentration 1000.0 nM
# [37] = target: Protein-tyrosine kinase 2-beta (Homo sapiens) (UniProt Q14289); details: Compound concentration 1000.0 nM
# [38] = target: Uncharacterized serine/threonine-protein kinase SBK3 (Homo sapiens) (UniProt P0C264); details: Compound concentration 1000.0 nM
# [39] = target: Tyrosine-protein kinase Srms (Homo sapiens) (UniProt Q9H3Y6); details: Compound concentration 1000.0 nM
# [40] = target: Serine/threonine-protein kinase TBK1 (Homo sapiens) (UniProt Q9UHD2); details: Compound concentration 1000.0 nM
# [41] = target: NT-3 growth factor receptor (Homo sapiens) (UniProt Q16288); details: Compound concentration 1000.0 nM
# Chain of NT-3 growth factor receptor (Homo sapiens) (Q16288 32-839 limits assumed): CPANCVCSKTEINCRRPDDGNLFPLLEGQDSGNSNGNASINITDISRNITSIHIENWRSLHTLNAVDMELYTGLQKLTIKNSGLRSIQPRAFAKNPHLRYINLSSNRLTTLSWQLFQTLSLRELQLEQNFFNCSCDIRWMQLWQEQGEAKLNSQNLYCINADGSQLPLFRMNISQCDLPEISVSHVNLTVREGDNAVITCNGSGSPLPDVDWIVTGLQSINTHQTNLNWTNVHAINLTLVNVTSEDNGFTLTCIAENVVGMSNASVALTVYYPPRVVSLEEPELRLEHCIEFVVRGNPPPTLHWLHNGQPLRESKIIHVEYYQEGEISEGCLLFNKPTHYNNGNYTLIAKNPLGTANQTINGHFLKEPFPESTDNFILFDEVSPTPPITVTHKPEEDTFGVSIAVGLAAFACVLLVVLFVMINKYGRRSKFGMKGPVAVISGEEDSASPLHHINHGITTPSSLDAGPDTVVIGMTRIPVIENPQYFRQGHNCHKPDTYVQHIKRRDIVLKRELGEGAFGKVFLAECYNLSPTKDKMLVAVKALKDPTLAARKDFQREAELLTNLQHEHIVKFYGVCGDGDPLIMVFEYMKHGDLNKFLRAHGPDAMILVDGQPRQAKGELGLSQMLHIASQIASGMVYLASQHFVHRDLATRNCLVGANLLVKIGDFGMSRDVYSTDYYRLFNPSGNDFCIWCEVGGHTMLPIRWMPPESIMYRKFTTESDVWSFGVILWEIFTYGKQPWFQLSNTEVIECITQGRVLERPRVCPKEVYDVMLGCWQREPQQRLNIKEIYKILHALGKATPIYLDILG
# [42] = target: Serine/threonine-protein kinase ULK3 (Homo sapiens) (UniProt Q6PHR2); details: Compound concentration 1000.0 nM
# [43] = target: Serine/threonine-protein kinase WNK2 (Homo sapiens) (UniProt Q9Y3S1); details: Compound concentration 1000.0 nM
# [44] = target: 5-hydroxytryptamine receptor 2C (Homo sapiens) (UniProt P28335); details: Compound concentration 10.0 uM
# [45] = target: D(1B) dopamine receptor (Homo sapiens) (UniProt P21918); details: Compound concentration 10.0 uM
smiles,measurement,setting,value
C[C@H](c1ccc(F)cc1)N(Cc1cccc(C(=O)O)c1)C(=O)c1cnc2ccccc2c1 [PF-05105679],Ki,[1],1020 nM
same,pKi,[1],5.99
same,inhibition at 10 µM,[2],32% (not active)
same,inhibition,[3],22%
same,inhibition,[4],21%
same,residual activity,[5],82%
same,residual activity,[6],100%
same,residual activity,[7],90%
same,residual activity,[8],100%
same,residual activity,[9],94%
same,residual activity,[10],95%
same,residual activity,[11],100%
same,residual activity,[12],100%
same,residual activity,[13],86%
same,residual activity,[14],88%
same,residual activity,[15],100%
same,residual activity,[16],85%
same,residual activity,[17],100%
same,residual activity,[18],78%
same,residual activity,[19],100%
same,residual activity,[20],100%
same,residual activity,[21],100%
same,residual activity,[22],100%
same,residual activity,[23],100%
same,residual activity,[24],79%
same,residual activity,[25],100%
same,residual activity,[26],64%
same,residual activity,[27],100%
same,residual activity,[28],100%
same,residual activity,[29],100%
same,residual activity,[30],100%
same,residual activity,[31],100%
same,residual activity,[32],100%
same,residual activity,[33],87%
same,residual activity,[34],100%
same,residual activity,[35],82%
same,residual activity,[36],100%
same,residual activity,[37],100%
same,residual activity,[38],100%
same,residual activity,[39],100%
same,residual activity,[40],91%
same,residual activity,[41],92%
same,residual activity,[42],82%
same,residual activity,[43],96%
same,inhibition,[44],6.54%
same,inhibition,[45],-1.69%
